Laboratory results published in ChEMBL document CHEMBL2385034, “Discovery, synthesis and in combo studies of a tetrazole analogue of clofibric acid as a potent hypoglycemic agent” (2013).
Calls of active or inactive are those of the source. The calls are words filed in the database; no cut-off is given here.

Columns and labels:
Rattus norvegicus [1] = test: Hypoglycemic activity in STZ-nicotinamide-induced Wistar rat diabetic model at 50 mg/kg, ig after 1 to 7 hrs relative to control; assay type: functional; conditions: route intragastric
[2] = molecular target: 11-beta-hydroxysteroid dehydrogenase 1 (Homo sapiens) (UniProt P28845); test: Inhibition of full-length human 11beta-HSD1 expressed in HEK293 cells at 10 uM after 2 hrs by scintillation proximity assay relative to clofibric acid; assay type: cell-based
Sequence of 11-beta-hydroxysteroid dehydrogenase 1 (Homo sapiens) (P28845 whole entry, looked up): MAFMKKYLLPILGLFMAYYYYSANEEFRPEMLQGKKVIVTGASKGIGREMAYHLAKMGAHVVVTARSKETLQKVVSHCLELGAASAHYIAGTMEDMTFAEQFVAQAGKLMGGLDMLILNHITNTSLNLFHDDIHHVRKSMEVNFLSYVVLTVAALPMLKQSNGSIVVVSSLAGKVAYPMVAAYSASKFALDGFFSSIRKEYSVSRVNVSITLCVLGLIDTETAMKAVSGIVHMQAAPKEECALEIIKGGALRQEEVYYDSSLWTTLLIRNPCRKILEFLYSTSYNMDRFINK

[3] = molecular target: 11-beta-hydroxysteroid dehydrogenase 1 (Homo sapiens) (UniProt P28845); test: Inhibition of full-length human 11beta-HSD1 expressed in HEK293 cells at 10 uM after 2 hrs by scintillation proximity assay relative to control; assay type: cell-based
[4] = molecular target: 11-beta-hydroxysteroid dehydrogenase 1 (Homo sapiens) (UniProt P28845); test: Inhibition of full-length human 11beta-HSD1 expressed in HEK293 cells at 10 uM after 2 hrs by scintillation proximity assay relative to clofibrate; assay type: cell-based
Rattus norvegicus [5] = test: Hypoglycemic activity in STZ-nicotinamide-induced Wistar rat diabetic model at 5 mg/kg, po after 1 to 7 hrs; assay type: functional, organism-based; set-up: dose 5 mg/kg
Rattus norvegicus [6] = organism: Rattus norvegicus; test: Hypoglycemic activity in STZ-nicotinamide-induced Wistar rat diabetic model after 1 to 7 hrs; assay type: functional, organism-based

`CC(C)(Oc1ccc(Cl)cc1)C(=O)Nc1nnn[nH]1` showed an Activity (Rattus norvegicus [1]) of 16%, a fold change (FC) [2] of 2.5 and an inhibition [3] of 51.2%. The fold change (FC) [4] was 2.5.

`CC1(C)[C@@H](OC(=O)CCC(=O)O)CC[C@]2(C)[C@H]3C(=O)C=C4[C@@H]5C[C@@](C)(C(=O)O)CC[C@]5(C)CC[C@@]4(C)[C@]3(C)CC[C@@H]12` was tested, and the inhibition [3] was 78.3%.

With `COc1ccc(Cl)cc1C(=O)NCCc1ccc(S(=O)(=O)NC(=O)NC2CCCCC2)cc1` the Activity (Rattus norvegicus [5]) was “Active”.

For `CC(C)(Oc1ccc(Cl)cc1)C(=O)O`, the Activity (Rattus norvegicus [6]) was “inactive” and the inhibition [3] was 19.1%.

`CCOC(=O)C(C)(C)Oc1ccc(Cl)cc1` showed an inhibition [3] of 18.1%.
